In assay [1] the target is T1, PPARγ (Homo sapiens, UniProt P37231).
T1 construct: gene PPARG; human PPARγ2 expressed in HEK-293 cells
T1 sequence (P37231 1-505): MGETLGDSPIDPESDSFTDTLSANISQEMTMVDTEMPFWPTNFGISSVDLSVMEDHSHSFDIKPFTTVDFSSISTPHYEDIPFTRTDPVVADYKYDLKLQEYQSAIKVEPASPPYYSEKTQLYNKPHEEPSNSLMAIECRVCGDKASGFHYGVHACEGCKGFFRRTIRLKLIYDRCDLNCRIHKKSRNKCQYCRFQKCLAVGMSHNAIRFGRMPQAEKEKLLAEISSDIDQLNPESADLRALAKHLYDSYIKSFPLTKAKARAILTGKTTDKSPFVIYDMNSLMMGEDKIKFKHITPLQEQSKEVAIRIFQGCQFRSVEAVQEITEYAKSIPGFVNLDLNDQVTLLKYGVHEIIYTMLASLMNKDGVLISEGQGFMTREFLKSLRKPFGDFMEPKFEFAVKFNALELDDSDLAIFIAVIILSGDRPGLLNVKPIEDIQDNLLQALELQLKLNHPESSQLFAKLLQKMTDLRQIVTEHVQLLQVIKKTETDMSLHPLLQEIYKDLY
The experiment in a line: 3xPPRE luciferase reporter in HEK293 cells, antagonism of Rosi activation. The class given is cell-based. In general terms: A reporter such as luciferase makes a cellular process visible.

Assay [2] concerns the target T2, PPARγ (Homo sapiens, UniProt P37231).
T2 construct: gene PPARG
T2 sequence (P37231 223-505): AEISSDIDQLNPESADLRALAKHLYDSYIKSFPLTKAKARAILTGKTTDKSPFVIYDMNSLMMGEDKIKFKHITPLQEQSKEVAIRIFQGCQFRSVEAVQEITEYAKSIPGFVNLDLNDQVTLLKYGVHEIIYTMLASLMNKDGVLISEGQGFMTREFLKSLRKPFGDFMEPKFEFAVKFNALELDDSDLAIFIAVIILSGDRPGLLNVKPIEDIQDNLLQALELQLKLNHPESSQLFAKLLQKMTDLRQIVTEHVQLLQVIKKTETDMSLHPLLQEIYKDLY
Briefly: X-ray co-crystal structure at […] Å; fluorescence polarization competition binding with GST-tagged LBD. Background: Polarisation of emitted light reports the rotation of a fluorescent probe.

Take `O=C(Nc1ccccc1)c1cc([N+](=O)[O-])ccc1Cl` [GW, GW9662]: at PPARγ [1], the “3xPPRE luciferase reporter in HEK293 cells, antagonism of Rosi activation” value is on record as “GW9662 significantly diminished the activation of 3xPPRE reporter by Rosi”.

The molecule `N#Cc1c(C2CCCCC2)nc(Sc2ccc(C(F)(F)F)cc2[N+](=O)[O-])[nH]c1=O` [TPMD, 4-cyclohexyl-2-((2-nitro-4-(trifluoromethyl)phenyl)thio)-6-oxo-1,6-dihydropyrimidine-5-carbonitrile] registered a concentration for half-maximal inhibition (IC50) at PPARγ [2] of roughly 5 µM.

In general, IC50 refers to the concentration at which inhibition is half-maximal. A low value points to inhibition by little substance.
